The test system of test [1] is IL-17F-induced gene expression. Kind of test: IL-17F-induced gene expression in epithelial cells. The class given is cell-based, human. As to conditions: data not shown.
The next test concerns Th17-mediated EAE. The test is described as follows: Adoptive transfer of EAE by Th17. The class given is in vivo, mouse. As to the method:
Adoptive transfer of EAE by Th17. To prepare MOG-specific polarized Th17 cell populations, drain lymph node cells were prepared from 10-week WT C57BL/6 female mice immunized with MOG 35-55 at day 10 postimmunization. Cells were cultured for 5 days with MOG 35-55 at a concentration of […] under Th17 cell (20 ng/ml IL-23) polarizing condition. For induction of Th17-mediated EAE, 10-week WT C57BL/6J female mice were injected i.p. with 3.0×10^7 polarized MOG 35-55-specific Th17 cells/mouse with or without A18 (30 μg per mouse) 4 h after 500 Rad sublethal irradiation. A18 (30 μg per mouse) was continuously administered i.p. to the treated mice every other day after Th17 injection. At the peak of disease, the mice were sacrificed and perfused with PBS. The spinal cords were fixed in 10% formalin for staining with H&E. The Brains were removed for isolation of infiltrating cells.
Isolation and analysis of inflammatory cells from brain. Brains were homogenized in ice-cold tissue grinders and filtered through a […] cell strainer, and the cells were collected by centrifugation at 400 g for 5 min at 4° C. Cells were resuspended in 10 ml of 30% Percoll (Amersham Bioscience) and centrifuge onto a 70% Percoll cushion in 15 ml tubes at 800 g for 30 min. Cells at the 30%-70% interface were collected and were subjected to flow cytometry. Fluorescence-conjugated CD4, CD8, CD45, Ly6G1 antibodies and isotype controls were purchased from BD Biosciences. F4/80 was obtained from Serotech.
Real-time PCR. Total RNA was extracted from spinal cords and cultured astrocytes with TRIzol (Invitrogen) according to the manufacturer's instructions. All gene expression results are expressed as arbitrary units relative to expression of the gene encoding beta-actin.

Test [2] relates to HDM-induced allergic airway disease. The test is described as follows: House dust mite (HDM)-induced asthma. The class given is in vivo. Particulars: C57BL/6 mice, A18 30 μg per mouse i.p. daily. The procedure: Measurement of AHR. AHR was measured in mice in response to increasing doses of inhaled methacholine. Mice were anesthetized with i.p. pentobarbital sodium (60 mg/kg). After the intubation and the placement of a 19-gauge cannula through a tracheotomy incision, the cannula was affixed with a silk suture ligation. Mice were connected to a computer-controlled piston ventilator run at a rate of 150 breaths/min, a tidal volume of 0.2 ml, and a positive end-expiratory pressure of 2-3 cm H2O (Flexivent). Mice were then administered a muscle relaxant (pancuronium bromide, […]), and the lungs were expanded twice to total lung capacity at an amplitude pressure of 30 cm H2O. Each mouse was aerosolized with methacholine in saline at doses of 0 mg/ml, 12.5 mg/ml, 25 mg/ml, and 50 mg/ml, delivered over 10 s through an in-line nebulizer. Lung resistance (RL) was obtained through forced oscillation technique by FlexiVent 5.2 (Flexivent; Scireq) software. House dust mite (HDM)-induced asthma. WT C57BL/6 mice were sensitized intratracheally (i.t.) with HDM (Dermatophagoides farina, 100 μg per mouse, Greer Laboratories) on day 0 and subsequently challenged (i.t.) with HDM (100 μg per mouse) from day 7 for 5 days. […] All gene expression results are expressed as arbitrary units relative to expression of the gene encoding beta-actin.

In a further test the test system is D4M melanoma cells. The test is described as follows: Experimental melanoma lung metastasis. The class given is in vivo. As to conditions: C57BL/6, 1×10^6 D4M cells tail vein, A18 60 μg/mouse daily, day 20. The procedure:
Melanoma pulmonary metastasis is indicative of poor prognosis. The experimental lung metastasis has been used to test the ability of tumor cell migration, growth at distant sites, effects of drugs for treatment of lung metastasis. In this model, melanoma cells are injected through tail vein, and metastatic lesions can be established in the lung after 2-3 weeks. Here we used this experimental lung metastasis model to test the possible impact of A18 on melanoma re-establishment at distant lung tissue. […] melanoma cells (Jenkins et al., Pigment cell & melanoma research 27, 495-501 (2014)), (1×10^6 cells) were injected into C57BL/6 mouse through tail vein. The control group mice were injected with 200 μl PBS daily, the other group mice were injected with 60 μg A18/mouse daily. The Histological sections were obtained from lung tissue at day 20.

Another test addresses T1, IL-17RA ECD (Homo sapiens, UniProt Q96F46).
T1 construct: using purified the extracellular domain (ECD) of human IL-17RA
Kind of test: Surface plasmon resonance (Biacore) binding to immobilized IL-17RA. As to conditions: SPR, IL-17RA immobilized on CM5 chip. The procedure:
Surface plasmon resonance (SPR). Binding of A18 to IL-17RA was conducted on Biacore T100 instrument. Purified IL-17RA was immobilized on CM5 sensor chip using amine coupling kit (GE healthcare). A18 of different concentrations were flown over the chip in PBSPP+ buffer (20 mM Phosphate, 2.7 mM KCl, 137 mM NaCl and 0.05% P20, pH 7.4). The chip was regenerated with 2M GnHCl. Binding KD was determined by Biaevaluation software.
In general terms: Surface plasmon resonance follows binding to a sensor surface in real time, without labels.

The next test deals with A549 cells. The test is described as follows: IL-17A-induced CXCL1 (Groα) production, ELISA. The class given is cell-based, human. Particulars: A549, IL-17 100 ng/ml, 24 h. The source says: (§1) Reagents, cell culture and mice. Purified proteins of human IL-17A, human IL-17E (IL-25), human IL-17RA-Fc (extracellular domain 1-322 AA fused with Fc region of human IgG1 at the C-terminus), human IL-17RB-Fc (extracellular domain 1-289 AA fused with Fc region of human IgG1 at the C-terminus), human horseradish peroxidase (HRP)-conjugated IgG Fc secondary antibody were purchased from Sino Biological Inc. Human and mouse IL-17A and mouse IL-23 used for cell culture and animal injection were purchased from R&D Systems. Human mammary epithelial cells were maintained in Medium 171 plus mammary epithelial growth supplement (MEGS) purchased from Invitrogen, which contain bovine pituitary extract (BPE) (0.4% v/v), recombinant human insulin-like growth factor-I (1 μg/ml), hydrocortisone (0.5 μg/ml) and human epidermal growth factor (3 ng/ml). A549 cells were maintained in RPMI supplemented with 10% FCS and 100 U/ml penicillin and 100 μg/ml streptomycin. All mice were obtained from Jackson laboratory.
(§2) ELISA. Groα and IL-17A levels were assayed by ELISA kits (R&D systems) according to the manufacturer's instruction.
In general terms: An ELISA detects its analyte on a solid surface through an enzyme-linked reagent.

The test system of test [3] is human mammary epithelial cells (HMEC). Kind of test: IL-17A-induced CXCL1 (Groα) production, ELISA. The class given is cell-based. As to conditions: IL-17 100 ng/ml, 24 h.
Source text: as §1, §2

[4] abbreviates: A18 30 μg per mouse i.p. every other day.

T1 sequence (Q96F46 33-320 limits assumed): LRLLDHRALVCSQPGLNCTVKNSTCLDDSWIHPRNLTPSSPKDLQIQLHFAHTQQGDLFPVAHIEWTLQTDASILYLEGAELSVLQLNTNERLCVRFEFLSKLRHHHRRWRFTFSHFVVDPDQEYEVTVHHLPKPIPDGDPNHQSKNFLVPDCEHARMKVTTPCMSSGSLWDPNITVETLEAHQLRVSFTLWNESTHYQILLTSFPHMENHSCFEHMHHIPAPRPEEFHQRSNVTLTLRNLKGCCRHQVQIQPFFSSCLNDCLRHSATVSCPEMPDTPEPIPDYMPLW

The Kd is the concentration at which binding is half-saturated. Read a low Kd as a tighter complex. For the molecule `Oc1cc(O)c2cc(O)c(-c3ccc(O)c(O)c3)[o+]c2c1.[Cl-]` [A18, 2-(3,4-Dihydroxyphenyl)-3,5,7-trihydroxy-1-benzopyrylium chloride], in test [1], the IL-17F-induced gene expression entry is listed as “able to block”. In the test on Th17-mediated EAE (setting [4]), the EAE disease severity result is recorded as “attenuated”; the “Expression of IL-17-responsive inflammatory genes (CXCL1, IL6, GMCSF, Ccl20) in spinal cords” value is “greatly reduced”; the “Onset of EAE” value is given as “substantially delayed”. Besides, the “Infiltrated cells in spinal cords” value with Th17-mediated EAE (H&E staining) is “less infiltrated cells”. In the test on Th17-mediated EAE (brain, flow cytometry), the “Infiltration of CD4+, CD8+ T cells and F4/80+ macrophages” value was “did not affect”; the “Recruitment of Ly6G+ neutrophils” value is “substantially reduced”. Moreover, in test [2], the “HDM-induced AHR” value is “reduced” and the “HDM-induced inflammatory gene expression” value is on record as “reduced”. The Lung metastasis tumors entry with D4M melanoma cells was “Fewer and smaller”. The Kd at IL-17RA ECD turned out to be 225 nM. In the test on A549 cells, the “IL-17A-mediated CXCL1 production” value is recorded as “greatly inhibited”. For the same molecule, in test [3], the “IL-17A-mediated CXCL1 production” value is recorded as “greatly inhibited”.

For the origin of these results see patent publication US10385034B2, “Flavonoid IL-17A inhibitors” (THE CLEVELAND CLINIC FOUNDATION, priority 2014, dated 2019).
